From article PMC6895180 (Nature Communications, 2019)
Values joined by “and” are separate entries in the source; they are usually repeats but may differ in a detail not shown here. Identical values can stand only once.

Legend:
[1] = tested on: RNAi clones targeting FLA1BP, EndoG, RHS5, BCKDHA in T. brucei NY-SM cells; test: Susceptibility of RNAi clones targeting FLA1BP, EndoG, RHS5, BCKDHA; type: cell-based, Trypanosoma brucei brucei
Method: Susceptibility assays with NY-SM[51], BS221[48] and TbAT1-KO[48] (derived from BS221) cells were performed using 10 concentrations of a 4-fold compound dilution series starting at 64 µM. Parasites were seeded at 4 × 10^3 parasites per well and exposed to drug compound for 72 h, after which resazurin (final concentration of 10 µg mL^−1) was added to the plates. Fluorescence intensities were determined after 6 h.
The RNAi library[54] was induced for 68 h by the addition of 1 µg mL^−1 of tetracycline. After induction, the cells were exposed to different concentrations of 9 (corresponding to the IC98, IC99). Cells were maintained until a recovery of the resistant population was observed. Genomic DNA of the resistant parasite population was isolated, and the RNAi inserts were identified by PCR amplification, followed by cloning in highly competent Escherichia coli and sequencing. To validate the involvement of the identified genes, the RNAi inserts were back-cloned into a p2T7Bern vector[54] and transformed into NY-SM cells (the background strain of the RNAi library). The transformed NY-SM cells were cloned by limiting dilution. Two clones of each RNAi insert were exposed to tetracycline to induce the RNAi phenotype and subsequently subjected to different concentrations of 9 to determine the susceptibility of induced versus non-induced clones.
Drug susceptibility assays with induced clones were performed as described above for NY-SM cells, with an initial induction period of 68 h with 1 µg mL^−1 tetracycline prior to the start of the drug susceptibility assay.
Supplementary Figure 6: Drug sensitivity of RNAi clones
Supplementary Figure 6: Drug susceptibility of RNAi clones targeting (A) FLA1BP (FLA1 binding protein), (B) EndoG (Endonuclease G), (C) RHS5 (Retrotransposon Hotspotprotein 5), (D) BCKDHA (branched chain keto acid dehydrogenase, i.e. 2-oxoisovalerate dehydrogenase). Results are expressed as the mean IC50 (µM) ± SEM and are based on two independent experiments with two biological replicates. + = tetracycline-induced clones. - = non-induced clones. All experiments were performed with two independent RNAi clones (A and B). Source data are provided as a Source Data file. […]

[2] = Metabolic stability, mouse liver microsomes (phase I and II)
Method: Mouse, rat, and pooled human liver microsomes were purchased from a commercial source (Corning) and stored at -80 °C. NADPH generating system solutions A and B and UGT reaction mix solutions A and B (Corning) were kept at -20°C. The test compound and the reference compounds diclofenac (MW […]
microsomal stability assay was carried out based on the BD Biosciences Guidelines for Use (TF000017 Rev1.0) with minor adaptations. Metabolic stability of the compounds was studied through the CYP450 superfamily (phase I metabolism) by fortification with reduced nicotinamide adenine dinucleotide phosphate (NADPH) and through uridine glucuronosyl-transferase (UGT) enzymes (phase II metabolism) by fortification with uridine diphosphate glucuronic acid (UDPGA). For the CYP450 and other NADPH dependent enzymes, both compounds were incubated at 5 µM together with 0.5 mg mL-1 liver microsomes in potassium phosphate buffer in a reaction started by the addition of 1 mM NADPH […]
At these time points, 20 µL was withdrawn from the reaction mixture and 80 µL cold acetonitrile (ACN) containing the internal standard tolbutamide, was added to inactivate the enzymes and precipitate the proteins. The mixture was vortexed for 30 s and centrifuged at 4 °C for 5 min at 15,000 rpm. The supernatant was stored at -80°C until analysis. For the UGT enzymes, both compounds were incubated at 5 µM together with 0.5 mg mL-1 liver microsomes in a reaction started by the addition of 2 mM UDPGA cofactor. The corresponding loss of parent compound was determined using liquid chromatography (UPLC) (Waters AquityTM) coupled with tandem quadrupole mass spectrometry (MS²) (Waters XevoTM), equipped with an electrospray ionization (ESI) interface and operated in multiple reaction monitoring (MRM) mode. […]

T. brucei NY-SM cells = test: RNA quantification (total RNA, RT-qPCR of SL-RNA, 18S rRNA, TERT); type: cell-based, Trypanosoma brucei; details: for RNA Yield: RNA Content: Control 1.00; for RNA Yield: 18S rRNA / RNA Yield: SL-RNA / RNA Yield: TERT: Control about 1
Method: After 24 h, the cells were harvested and washed with PBS. […] RNA was extracted using the QIAamp RNA Blood Mini Kit (Qiagen). Total RNA yields were determined using both Nanodrop 2000 spectrometry and Qubit fluorimetric RNA content analysis. Additionally, specific transcripts in the RNA pool were quantified using RT-qPCR targeting the SL-RNA, 18S rRNA and transcripts encoding the telomerase reverse transcriptase (TERT)[28],[56]. A list of primers used is provided in the Supplementary Methods section of the Supplementary Information.

## Nc1ncnc2c1ccn2[C@@H]1O[C@H](CO)C[C@H]1O [Compound 9, 3’-deoxytubercidin]
[1]
  susceptibility of tetracycline-induced versus non-induced clones, remaining four constructs: no significant differences
[1]; BCKDHA RNAi clone A +
  IC50: 7.45 nM
[1]; BCKDHA RNAi clone A -
  IC50: 7.58 nM and 7.81 nM
[1]; BCKDHA RNAi clone B -
  IC50: 7.47 nM
[1]; EndoG RNAi clone A +
  IC50: 7.75 nM
[1]; EndoG RNAi clone A -
  IC50: 8.23 nM and 7.93 nM and 7.81 nM
[1]; EndoG RNAi clone B +
  IC50: 7.63 nM and 7.94 nM and 8.26 nM
[1]; EndoG RNAi clone B -
  IC50: 7.81 nM
[1]; FLA1BP RNAi clone A -
  IC50: 6.66 nM
[1]; FLA1BP RNAi clone B +
  IC50: 7.81 nM and 7.59 nM
[1]; FLA1BP RNAi clone B -
  IC50: 7.64 nM and 7.01 nM
[1]; RHS5 RNAi clone A +
  IC50: 8.05 nM and 7.59 nM
[1]; RHS5 RNAi clone A -
  IC50: 7.93 nM
[1]; RHS5 RNAi clone B +
  IC50: 8.37 nM and 7.06 nM
[1]; Trypanosoma brucei, BCKDHA RNAi clone A +
  IC50: 7.99 nM
[1]; Trypanosoma brucei, BCKDHA RNAi clone A -
  IC50: 7.98 nM
[1]; Trypanosoma brucei, BCKDHA RNAi clone B +
  IC50: 8.39 nM
[1]; Trypanosoma brucei, BCKDHA RNAi clone B -
  IC50: 7.41 nM
[1]; Trypanosoma brucei, EndoG RNAi clone A +
  IC50: 8.04 nM
[1]; Trypanosoma brucei, EndoG RNAi clone A -
  IC50: 8.17 nM
[1]; Trypanosoma brucei, EndoG RNAi clone B +
  IC50: 8.04 nM
[1]; Trypanosoma brucei, EndoG RNAi clone B -
  IC50: 7.92 nM
[1]; Trypanosoma brucei, FLA1BP RNAi clone A +
  IC50: 8.1 nM
[1]; Trypanosoma brucei, FLA1BP RNAi clone A -
  IC50: 7.7 nM
[1]; Trypanosoma brucei, FLA1BP RNAi clone B +
  IC50: 8.04 nM
[1]; Trypanosoma brucei, FLA1BP RNAi clone B -
  IC50: 7.46 nM
[1]; Trypanosoma brucei, RHS5 RNAi clone A +
  IC50: 8.1 nM
[1]; Trypanosoma brucei, RHS5 RNAi clone A -
  IC50: 7.87 nM
[1]; Trypanosoma brucei, RHS5 RNAi clone B +
  IC50: 8.3 nM
[1]; Trypanosoma brucei, RHS5 RNAi clone B -
  IC50: 7.76 nM
[2]; microsomes, 0 min, 5 µM
  % analogue 9 remaining, EXP 1 / EXP 2: 100%
  % analogue 9 remaining, Mean: 100%
[2]; s9, 0.5 h
  metabolic stability: metabolically stable
T. brucei NY-SM cells; 1.4 nM
  RNA Yield: RNA Content: 1.35 and 1.46
  RNA Yield: 18S rRNA: 0.9222 and 0.9324 and 0.9996 and 1.001
  RNA Yield: SL-RNA: 0.789 and 0.7785 and 0.978 and 0.9385
  RNA Yield: TERT: 0.9232 and 0.9182 and 1.015 and 1.009
T. brucei NY-SM cells; 3.5 nM
  RNA Yield: RNA Content: 0.81 and 1.07
  RNA Yield: 18S rRNA: 0.9119 and 1.014 and 1.009 and 1.044
  RNA Yield: SL-RNA: 0.7939 and 0.7953 and 1.021 and 1.016
  RNA Yield: TERT: 0.9429 and 0.9282 and 1.046 and 1.035
T. brucei NY-SM cells; 7 nM
  RNA Yield: RNA Content: 0.50 and 0.86
  RNA Yield: 18S rRNA: 1.036 and 1.037
  RNA Yield: SL-RNA: 1.052 and 1.049
  RNA Yield: TERT: 1.046 and 1.042
T. brucei NY-SM cells; 24 h, various concentrations
  impact on RNA synthesis: absence of a major impact on the total RNA pool and the levels of specific transcripts
